A short description of data set [1]: Drug uptake in C57BL/6 mouse DRG neurons incubated for 40 mins followed by compound wash out for 10 secs and addition of compound for 30 to 60 mins by autoradiographic analysis. In kind it is ADME, cell-based. Particulars: drg neuron.
A short description of data set [2]: Drug uptake in C57BL/6 mouse brain incubated for 40 mins followed by compound wash out for 10 secs and addition of compound for 30 to 60 mins in presence of 400 uM LM11A-24 by autoradiographic analysis. In kind it is ADME, tissue-based.
Data set [3] can be described thus: Drug uptake in C57BL/6 mouse DRG neurons incubated for 40 mins measured after 30 to 60 mins by autoradiographic analysis. Particulars: drg neuron. In kind it is ADME, cell-based.
Data set [4] is described as follows: Drug uptake in Long-Evans rat brain at 0.4 mCi, iv through bolus administration by PET analysis. Type of data set: ADME, organism-based. Particulars: in vivo.
Data set [5] can be described thus: Drug uptake in C57BL/6 mouse brain incubated for 40 mins followed by compound wash out for 10 secs and addition of compound for 30 to 60 mins in presence of 10 uM LM11A-24 by autoradiographic analysis. In kind it is ADME, tissue-based.
Data set [6] can be described thus: Drug uptake in Long-Evans rat bladder at 0.4 mCi, iv through bolus administration by PET analysis. Particulars: in vivo. Type of data set: ADME, organism-based, Urinary bladder.
Data set [7] is described as follows: Drug uptake in C57BL/6 mouse brain incubated for 40 mins followed by compound wash out for 10 secs and addition of compound for 30 to 60 mins by autoradiographic analysis. In kind it is ADME, tissue-based.
The species entered for another data set is Mus musculus. Put plainly: Effect on carbachol-mediated persistant firing of entorhinal cortex in p75NTR deficient C57BL/6 mouse brain at 10 nM after 15 mins by current-clamp technique. In kind it is functional.
Data set [8] deals with T1, Tumor necrosis factor receptor superfamily member 16 (Rattus norvegicus) (UniProt P07174).
T1 sequence (whole entry): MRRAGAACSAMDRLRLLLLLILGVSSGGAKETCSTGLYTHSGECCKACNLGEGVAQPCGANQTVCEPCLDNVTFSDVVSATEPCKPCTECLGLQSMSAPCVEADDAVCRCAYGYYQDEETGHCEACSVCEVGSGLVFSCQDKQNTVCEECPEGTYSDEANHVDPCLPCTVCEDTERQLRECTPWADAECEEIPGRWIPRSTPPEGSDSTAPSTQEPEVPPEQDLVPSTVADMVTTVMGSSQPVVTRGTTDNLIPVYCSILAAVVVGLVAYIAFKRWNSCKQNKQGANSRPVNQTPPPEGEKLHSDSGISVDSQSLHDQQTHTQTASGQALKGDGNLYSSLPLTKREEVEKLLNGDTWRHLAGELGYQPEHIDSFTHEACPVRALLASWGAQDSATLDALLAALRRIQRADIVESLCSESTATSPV
Put plainly: Binding affinity to p75NTR in Long-Evans rat brain at 300 uCi incubated for 40 mins followed by compound wash out for 10 secs and addition of compound for 2 hrs by autoradiographic analysis. Type of data set: tissue-based. As to conditions: tested as the 11C-labelled form.

Data set [9] in a line: Hydrophilicity, logD of the compound. Type of data set: physicochemical. Particulars: octanol/water.
Data set [10] addresses T2, Tumor necrosis factor receptor superfamily member 16 (Mus musculus) (UniProt Q9Z0W1).
T2 sequence (whole entry): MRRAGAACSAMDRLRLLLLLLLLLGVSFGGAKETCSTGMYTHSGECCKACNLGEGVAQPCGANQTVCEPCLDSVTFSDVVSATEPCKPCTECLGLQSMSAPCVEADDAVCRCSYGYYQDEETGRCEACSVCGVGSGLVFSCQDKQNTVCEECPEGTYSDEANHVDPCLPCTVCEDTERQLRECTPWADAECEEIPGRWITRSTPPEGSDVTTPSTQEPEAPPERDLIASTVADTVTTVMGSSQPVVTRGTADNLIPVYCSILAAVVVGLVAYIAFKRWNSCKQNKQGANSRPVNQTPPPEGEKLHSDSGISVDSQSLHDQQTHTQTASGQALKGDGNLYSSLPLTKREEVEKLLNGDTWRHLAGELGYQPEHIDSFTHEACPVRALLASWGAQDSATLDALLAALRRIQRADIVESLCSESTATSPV
Put plainly: (§1) Activation of p75NTR in C57BL/6 mouse brain assessed as suppression of carbachol-mediated persistant firing of entorhinal cortex after 15 mins by current-clamp technique. In kind it is tissue-based.

The target in data set [11] is T3, Tumor necrosis factor receptor superfamily member 16 (Mus musculus, UniProt Q9Z0W1).
T3 sequence (Q9Z0W1 whole entry): T2 sequence (whole entry)
Described as §1. Type of data set: tissue-based.

The structures appear in SMILES notation. Calls of active or inactive are those of the source. The calls are words filed in the database; no cut-off is given here. Where only a bound is given, the exact number is not on record here.

For the molecule `CN([11CH3])CCCNC(=O)Cn1cnc2c1c(=O)n(C)c(=O)n2C`, the Drug uptake result was “Not Active” in data set [1]; “Active” in [2]; “Not Active” in [3]; “Not Active” in data set [4]; “Active” in data set [5]; “Active” in [6]. The Drug uptake result in data set [7] is recorded as “Active”.

For the molecule `CN(C)CCCNC(=O)Cn1cnc2c1c(=O)n(C)c(=O)n2C`, the result (in the data set filed under Mus musculus; in data set [8]) was inactive. Further, in data set [9], the log distribution coefficient (logD) (usually lipophilicity at a set pH, counting ionised and neutral species) was -3. The Activity result in data set [10] is “Dose-dependent effect”. Further, in data set [11], the EC50 (usually the concentration giving half of the maximal effect) was below 0.01 µM.

Values taken from ChEMBL document CHEMBL4431381 (Bioorg Med Chem, 2016).
